Data: US20070167400A1, “Chitosan oligosaccharides and uses thereof” (priority 2001, published 2007)

Legend:
[1] = tested on: IL-6 production in mice macrophages C57BL/6; assay: IL-6 production in macrophages (ELISA); format: cell-based, C57BL/6 mice; conditions: non-activated macrophages
Method: FIG. 3 is a graphic illustrating the levels of IL-6 production in mice macrophages C57BL/6 treated in vitro with various concentrations of chitosan oligomers and glucosamine (A) with and without the presence of peptidoglycan (B), as measured by an ELISA test (n=3). […] LPS and PEP were added as positive controls. Non-activated macrophages were treated with products A, B and W and the IL-6 production was compared with the effects of glucosamine (product D). LPS and PEP were added as positive controls.

[2] = tested on: C57BL/6 mice spleen lymphocytes; assay: Stimulation of spleen lymphocytes by supernatants of treated peritoneal macrophages (MTS/PMS); format: cell-based
Method: FIG. 1 is a graphic illustrating the levels of stimulation of the C57BL/6 mice spleen lymphocytes incubated in vitro with macrophage supernatants treated with various concentrations of chitosan oligomers and glucosamine in (A) with and without the presence of peptidoglycan (B), as measured by the activity of the mitochondrial dehydrogenase on formazan salts (MTS/PMS) after 72 hrs of incubation (n=3).
The first experiment consisted in verifying if Product W was able to induce an […] effect. With this in mind, various concentrations of Product W (10 to 160 μg/ml) were incubated with peritoneal macrophages during a 24 hour period and the immunostimulating properties of the supernatants were measured on C57BL/6 mice spleen lymphocytes. The metabolic activity of spleen lymphocytes was measured by the level of Formazan salts transformation (mitochondrial dehydrogenase: MTS/PMS). As control, the dimer of glucosamine (product A), the trimer of glucosamine (product B) and a mixture of dimer-trimer in a ratio of 40:60 (mixture AB) was also studied and the results compared with those induced by glucosamine (product D). Positive controls of pro-inflammatory substances were added, such as lipopolysaccharides of E. coli (LPS) and peptidoglycan of S. Aureus (PEP).
In a second experiment, the macrophages were stimulated by peptidoglycan, (that has a stronger activation on the inflammatory response than LPS), and the capacity of products A, B, AB and W to decrease the stimulation of the lymphocytes was evaluated. […] The reduction induced by Product W, though slight, seems stronger than that induced by glucosamine (product D).

[3] = tested on: IL-1β release by human keratinocytes; assay: IL-1β release by human keratinocytes (ELISA), unstimulated, UVB or PMA stimulated; format: cell-based; conditions: dexamethasone 0.1 μM
Method: • Reference 1: (PGE2 induction): Indomethacin (Sigma 17378), tested at 1 μM (final) • Reference 2: (IL1β induction): Dexamethazone (Sigma D1756), tested at 0.1 μM (final) Treatments and Assays
Other plates were kept in the dark.
After thawing and centrifugation of the medium, the content in PGE2 was measured in ELISA with a R&D Systems kit (DE0100), according to the recommended protocol of the supplier. The IL1β content was measured in ELISA with a Immunotech kit (1042), according to the recommended protocol of the supplier.
The raw data were transformed and treated by the software PRISM® (Graph Pad Software). The intergroup comparisons were realized by analysis of variance (ANOVA), with the multiple comparison test DUNNETT.

[4] = tested on: prostaglandin E2 (PGE2) release by human keratinocytes; assay: PGE2 release by human keratinocytes (ELISA), unstimulated, UVB or PMA stimulated; format: cell-based
Method: The objectives of the present study are to evaluate the anti-inflammatory effects of two chitosan oligosaccharides (product […] and product […]) according to the present invention, and, more particularly on prostaglandin E2 (PGE2) and IL-1β release by human keratinocytes under a UVB irradiation. […] Other plates were kept in the dark. […] After thawing and centrifugation of the medium, the content in PGE2 was measured in ELISA with a R&D Systems kit (DE0100), according to the recommended protocol of the supplier. The IL1β content was measured in ELISA with a Immunotech kit (1042), according to the recommended protocol of the supplier. The raw data were transformed and treated by the software PRISM® (Graph Pad Software). The intergroup comparisons were realized by analysis of variance (ANOVA), with the multiple comparison test […].

[5] = tested on: IL-10 production in mice macrophages C57BL/6; assay: IL-10 production in macrophages (ELISA); format: cell-based, C57BL/6 mice
Method: LPS and PEP were added as positive controls. We then verified the IL-10 production levels, a very powerful anti-inflammatory cytokine. Peritoneal macrophages are normally good producers of IL-10 since a normal intestinal system requires a high immunological tolerance to operate correctly. Non-activated macrophages were incubated with the various products, as well as LPS and PEP as positive controls, during 24 hours.

[6] = tested on: TNF-α production in C57BL/6 mice macrophages; assay: TNF-α production in macrophages (ELISA); format: cell-based; conditions: macrophages activated by PEP
Method: LPS and PEP were added as positive controls. The first cytokine studied was tumor necrosis factor (TNF-α) which is the first cytokine produced and induces the production of the other pro-inflammatory cytokines.

[7] = supernatants of non-activated macrophages, 10 to 160 μg/ml, 24 hour
[8] = no stimulation, indomethacin 1 μM

Q: With `N[C@H]1[C@H](O[C@H]2[C@H](O)[C@@H](N)C(O)O[C@@H]2CO)O[C@H](CO)[C@@H](O)[C@@H]1O` (stereo partly drawn) [Product A] as the compound, how does the “effect on IL-6 production (in words), FIG. 3A” value (shortened to “effect on IL-6 production”) [1] read?
A: The value was “slightly decrease”.

Q: What about the “effect on lymphocyte activity (in words), FIG. 1A” value (shortened to “effect on lymphocyte activity”) ([2]; non-activated macrophages, 80 μg/ml) of the same compound?
A: Its value is “slight increase”.

Q: And the “effect on lymphocyte activity” value ([2]; non-activated macrophages, 10 μ/ml)?
A: The value was “slight decrease”.

Q: `N[C@H]1[C@H](O[C@H]2[C@H](O)[C@@H](N)[C@H](O[C@H]3[C@H](O)[C@@H](N)C(O)O[C@@H]3CO)O[C@@H]2CO)O[C@H](CO)[C@@H](O)[C@@H]1O` (stereo partly drawn) [Product B] was tested. Which “effect on IL-6 production” value [1] did it give?
A: Its value is “increase”.

Q: And the “effect on lymphocyte stimulation induced by PEP (in words), FIG. 1B” value ([2]; macrophages stimulated by peptidoglycan (PEP))?
A: The value was “with the weakest concentration tested was able to decrease this stimulation”.

Q: What about the “effect on lymphocyte activity” value [2, 7] of the same compound?
A: Its value is “slight stimulation with the smallest doses only”.

Q: With `C[C@@H]1C[C@H]2[C@@H]3CCC4=CC(=O)C=C[C@]4(C)[C@@]3(F)[C@@H](O)C[C@]2(C)[C@@]1(O)C(=O)CO` [dexamethasone, Dexamethazone] as the compound, how does the “IL1β” value ([3]; PMA stimulation 1 μg/ml) read?
A: Its value is 0.2 pg/mL.

Q: And the “IL1β % (of control)” value ([3]; PMA stimulation)?
A: Its value is 5%.

Q: What about the “IL-1β % (of control)” value ([3]; no stimulation) of the same compound?
A: Its value is 8%.

Q: With `COc1ccc2c(c1)c(CC(=O)O)c(C)n2C(=O)c1ccc(Cl)cc1` [Indomethacin] as the compound, how does the “effect on PGE2 release induced by PMA (in words)” value ([4]; PMA stimulation) read?
A: Its value is “totally blocked the PGE2 production/release”.

Q: What about the “PGE2” value ([4]; PMA stimulation 1 μg/ml, indomethacin 1 μM) of the same compound?
A: Its value is 10 pg/mL.

Q: And the “PGE2 % (of control)” value ([4]; PMA stimulation, indomethacin 1 μM)?
A: The value was 0%.

Q: And the “effect on PGE2 release (in words)” value ([4]; UVB stimulation)?
A: Its value is “significantly reduced the PGE2 release”.

Q: What about the “PGE2” value ([4]; UVB stimulation 250 mJ/cm2, indomethacin 1 μM) of the same compound?
A: Its value is 7.3 pg/mL.

Q: And the “PGE2 % (of control)” value ([4]; UVB stimulation, indomethacin 1 μM)?
A: Its value is 22%.

Q: What about the “PGE2” value [4, 8] of the same compound?
A: Its value is 0.9 pg/mL.

Q: What about the “PGE2 % (of control)” value [4, 8] of the same compound?
A: Its value is 8%.

Q: And the “effect on basal PGE2 production/release (in words)” value [4, 8]?
A: The value was “apparently totally blocked the production/release of this basal level”.

Q: For `N[C@H]1C(O)O[C@H](CO)[C@@H](O)[C@@H]1O` (stereo partly drawn) [glucosamine], which “effect on IL-10 production (in words), FIG. 4B” value ([5]; macrophages activated by PEP) is on record?
A: Its value is “no detectable effect”.

Q: And the “effect on IL-10 production (in words), FIG. 4A” value ([5]; non-activated macrophages, 24 hours)?
A: Its value is “slightly increased the IL-10 production”.

Q: What about the “effect on IL-6 production” value [1] of the same compound?
A: The value was “did not modify this cytokine”.

Q: What about the “effect on TNF-α (in words), FIG. 2B” value ([6]; 10 μg/ml) of the same compound?
A: Its value is “increased the level of TNF-α”.

Q: And the “effect on TNF-α (in words), FIG. 2B” value ([6]; highest concentration)?
A: Its value is “induced a reduction”.

Q: What about the “effect on lymphocyte activity” value [2, 7] of the same compound?
A: The value was “slightly increased the lymphocyte activity”.
